Data set [1] can be described thus: in vivo. The arrangement: species or system Wistar rats. Conditions: po, 8 mg/kg. On the procedure: The absorption of the complexes of the invention has been evaluated by orally administering an aqueous solution of the composition under examination and measuring by HPLC the Silybinin bile levels. This test has been preferred because it is well known that drugs of the Silymarin kind reach in the bile the highest concentration.
The experiments have been carried out on Wistar rats weighing 180-200 g to which the compositions under examination were administered by gastric intubation. The animals were kept on an empty stomach for 16 hours. The composition to be tested was dissolved in water containing 10% of gum Arabic and were prepared solutions so that each animal was administered,each time with an amount of 5 ml/kg of said solution.
Immediately after the treatment the animals were anaesthetized and operated to check the coledocous duct. A small tube was inserted therein and the bile was collected over a period of 24 hours.
For the analytical determination 1 ml bile was treated as described in the following publication: D. Lorenz et al, Pharmacokinetic Studies with Silymarin in Human Serum and Bile--Meth. and Find.Exptl.Clin.Pharmacol.6(10) 655-661 (1984).
in test A, there were administered 20 mg/kg of Silymarin, according to a known commercial formulation which corresponds to 8 mg/kg of pure Silybinin,
in test B, there were administered 8.79 mg/kg of Silybinin having a HPLC titre of 91%, which corresponds to 8 mg/kg of pure Silybinin, used such as without excipients, […]

A short description of data set [2]: Thermoanalytical studies (TG, DTG, DSC, TEA). Type of data set: physicochemical. As to the method: Thermoanalytical investigations were carried out on a Du Pont 990 Thermal Analyser System. TG (Thermogravimetry) DTG (Differential TG) DSC (Differential Scanning Calorimetry) and TEA (Thermal Evolution Analysis) curves of the drug, as well as those of its mechanical mixtures with DIMEB and HP-βCD and the complexes were taken simultaneously.

Data set [3] in a line: Resorption: excretion of Silybinin in rat bile after intragastric administration, quantitative TLC. The arrangement: species or system male Wistar SPF rats. Conditions: in vivo, po, 5 mg/kg. On the procedure: In a further experiment the resorption of Silymarin, Silybinin and of the complex of Example 6 was evaluated. For this purpose the excretion of Silybinin in the rat bile was determined in a conventional model experiment. Anesthetized male Wistar SPF rats kept under conventional conditions, were cannulated at the ductus choledochus. After intragastric administration of the test compound (5 mg Silybinin/kg) the bile fluid was collected for 5hr. The Silybinin content in the bile fluid was determined by quantitative thin layer chromatography.

The conditions of data set [4]: pH 7.5.
Protocol: Release experiments with Silybinin, Silymarin and the complex of this Example were carried out according to USP XXII, paddle apparatus at pH 7.5 and 37° C.

Regarding “Silybinin: β-cyclodextrin Inclusion Complex (Molar Ratio 1:1) [Example 1]”, the “0-24 hr Silybinin in bile per rat” value in data set [1] amounted to 256.6 mcg/rat. In data set [1] (rat, 1440 min), the “% excreted Silybinin” value was determined as 11.7% and the “Bile 0-24 hr Silybinin level” value is 17.6 µg/mL.

Turning to `COc1cc(C2Oc3cc(C4Oc5cc(O)cc(O)c5C(=O)C4O)ccc3OC2CO)ccc1O` (centres unmarked) [Silybinin], the “temperature at which decomposition of the drug begins” value in data set [2] (DSC, FIG. 4, non-complexed Silybinin) was “about 130 °C”. Also, the “loss of weight up to 160° C.” value in data set [2] (first decomposition step) was 4-5%. Also, in data set [2] (region of the cyclodextrin decomposition), the “start of second decomposition step” value is “above 250 °C”. In addition, the “0-24 hr Silybinin in bile per rat” value in data set [1] is given as 11.9 mcg/rat. In data set [1] (rat), this compound gave a concentration at 24 h of 1000 ng/mL and a dose excreted at 24 h of 0.6%. Besides, the dose excreted at 5 h in data set [3] was found to be 0.21%. Besides, the “release (solubility)” value in data set [4] came out at 0%.

The values are drawn from patent US5198430A, “Inclusion complexes with silybinin, their preparation and pharmaceutical compositions containing them” (Istituto Biochimico Italiano Giovanni Lorenzini SpA, priority 1989, dated 1993).
